Laboratory results taken from ChEMBL document CHEMBL3885861, “Open TG-GATES”.

Species on record: Rattus norvegicus
Assay: Open TG-GATES - Regimen: Single
Type: toxicity, organism-based, Sprague-Dawley
Parameters: regimen Single, gender Male, age 6 weeks
Settings: in vivo, ip, 1500 mg/kg, route intraperitoneal injection, dose level High; for APTT / Bas / Eos / Fbg / Hb / Ht / Lym / MCH / MCHC / MCV / Mono / Neu / PT / Plat / RBC / Ret / WBC: tissue Blood; for KIDNEY_L / KIDNEY_R / KIDNEY_TOTAL: tissue Kidney; for LIVER: tissue Liver; for A/G / ALP / ALT / AST / BUN / CRE / Ca / Cl / DBIL / GLC / IP / K / LDH / Na / PL / RALB / TBIL / TC / TG / TP / gamma-GTP: tissue Plasma

Compound: CCCCS(=N)(=O)CCC(N)C(=O)O (configuration not stated) [BUTHIONINE SULFOXIMINE]
- TERMINAL_BW (3 h): 213.4 g
- APTT (3 h): 16 s
- Bas (3 h): 0%
- Eos (3 h): 1%
- Fbg (3 h): 216.4 mg/dL
- Hb (3 h): 13.2 g/dL
- Ht (3 h): 39.5%
- Lym (3 h): 61.4%
- MCH (3 h): 21.6 pg
- MCHC (3 h): 33.4%
- MCV (3 h): 64.7 fL
- Mono (3 h): 9.2%
- Neu (3 h): 29%
- PT (3 h): 12 s
- Plat (3 h): 119.7 x10_4/uL
- RBC (3 h): 610.4 x10_4/ul
- Ret (3 h): 8.8%
- WBC (3 h): 106.8 x10_2/uL
- KIDNEY_L (3 h): 0.9 g
- KIDNEY_R (3 h): 1 g
- KIDNEY_TOTAL (3 h): 1.9 g
- LIVER (3 h): 10.1 g
- A/G (3 h): 2.2
- ALP (3 h): 832 IU/L
- ALT (3 h): 43.4 IU/L
- AST (3 h): 48 IU/L
- BUN (3 h): 15.2 mg/dL
- CRE (3 h): 0.4 mg/dL
- Ca (3 h): 10.9 mg/dL
- Cl (3 h): 104.8 meq/L
- DBIL (3 h): 0.066 mg/dL
- GLC (3 h): 191.2 mg/dL
- IP (3 h): 9.8 mg/dL
- K (3 h): 4.5 meq/L
- LDH (3 h): 89.2 IU/L
- Na (3 h): 138.8 meq/L
- PL (3 h): 137.8 mg/dL
- RALB (3 h): 3.8 g/dL
- TBIL (3 h): 0.3 mg/dL
- TC (3 h): 70.2 mg/dL
- TG (3 h): 57.8 mg/dL
- TP (3 h): 5.5 g/dL
- gamma-GTP (3 h): 1 IU/L
- TERMINAL_BW (6 h): 215.9 g
- APTT (6 h): 16.4 s
- Bas (6 h): 0%
- Eos (6 h): 0.8%
- Fbg (6 h): 218.6 mg/dL
- Hb (6 h): 13.3 g/dL
- Ht (6 h): 39.6%
- Lym (6 h): 67.2%
- MCH (6 h): 22 pg
- MCHC (6 h): 33.6%
- MCV (6 h): 65.5 fL
- Mono (6 h): 6.6%
- Neu (6 h): 25.6%
- PT (6 h): 10.8 s
- Plat (6 h): 124.2 x10_4/uL
- RBC (6 h): 605 x10_4/ul
- Ret (6 h): 8.3%
- WBC (6 h): 104.4 x10_2/uL
- KIDNEY_L (6 h): 0.9 g
- KIDNEY_R (6 h): 1 g
- KIDNEY_TOTAL (6 h): 1.9 g
- LIVER (6 h): 9 g
- A/G (6 h): 1.9
- ALP (6 h): 696.6 IU/L
- ALT (6 h): 31 IU/L
- AST (6 h): 56.2 IU/L
- BUN (6 h): 11.6 mg/dL
- CRE (6 h): 0.7 mg/dL
- Ca (6 h): 10.9 mg/dL
- Cl (6 h): 104.6 meq/L
- DBIL (6 h): 0.004 mg/dL
- GLC (6 h): 189.2 mg/dL
- IP (6 h): 10 mg/dL
- K (6 h): 4.5 meq/L
- LDH (6 h): 107.8 IU/L
- Na (6 h): 140 meq/L
- PL (6 h): 138.6 mg/dL
- RALB (6 h): 3.5 g/dL
- TBIL (6 h): 0.3 mg/dL
- TC (6 h): 80.8 mg/dL
- TG (6 h): 46.4 mg/dL
- TP (6 h): 5.4 g/dL
- gamma-GTP (6 h): 1.6 IU/L
- TERMINAL_BW (9 h): 211.3 g
- APTT (9 h): 17.8 s
- Bas (9 h): 0%
- Eos (9 h): 0.8%
- Fbg (9 h): 255.4 mg/dL
- Hb (9 h): 13.6 g/dL
- Ht (9 h): 40.4%
- Lym (9 h): 57.4%
- MCH (9 h): 21.8 pg
- MCHC (9 h): 33.7%
- MCV (9 h): 64.8 fL
- Mono (9 h): 5.2%
- Neu (9 h): 36.6%
- PT (9 h): 11.3 s
- Plat (9 h): 119.4 x10_4/uL
- RBC (9 h): 623.4 x10_4/ul
- Ret (9 h): 8.2%
- WBC (9 h): 103.7 x10_2/uL
- KIDNEY_L (9 h): 1 g
- KIDNEY_R (9 h): 1 g
- KIDNEY_TOTAL (9 h): 1.9 g
- LIVER (9 h): 8.6 g
- A/G (9 h): 1.9
- ALP (9 h): 782.6 IU/L
- ALT (9 h): 27 IU/L
- AST (9 h): 47.4 IU/L
- BUN (9 h): 12.2 mg/dL
- CRE (9 h): 0.5 mg/dL
- Ca (9 h): 11.3 mg/dL
- Cl (9 h): 106.2 meq/L
- DBIL (9 h): 0.012 mg/dL
- GLC (9 h): 202.4 mg/dL
- IP (9 h): 9.2 mg/dL
- K (9 h): 4.9 meq/L
- LDH (9 h): 89.4 IU/L
- Na (9 h): 138.6 meq/L
- PL (9 h): 137.6 mg/dL
- RALB (9 h): 3.7 g/dL
- TBIL (9 h): 0.3 mg/dL
- TC (9 h): 80.8 mg/dL
- TG (9 h): 37.6 mg/dL
- TP (9 h): 5.6 g/dL
- gamma-GTP (9 h): 1.4 IU/L
- TERMINAL_BW (24 h): 224.8 g
- APTT (24 h): 16.6 s
- Bas (24 h): 0%
- Eos (24 h): 1.4%
- Fbg (24 h): 273.2 mg/dL
- Hb (24 h): 13.3 g/dL
- Ht (24 h): 39.7%
- Lym (24 h): 73.8%
- MCH (24 h): 21.7 pg
- MCHC (24 h): 33.5%
- MCV (24 h): 64.8 fL
- Mono (24 h): 7.2%
- Neu (24 h): 17.8%
- PT (24 h): 11.7 s
- Plat (24 h): 119.6 x10_4/uL
- RBC (24 h): 613.4 x10_4/ul
- Ret (24 h): 9.3%
- WBC (24 h): 98.2 x10_2/uL
- KIDNEY_L (24 h): 1 g
- KIDNEY_R (24 h): 1 g
- KIDNEY_TOTAL (24 h): 2 g
- LIVER (24 h): 10.5 g
- A/G (24 h): 1.8
- ALP (24 h): 1035 IU/L
- ALT (24 h): 29.4 IU/L
- AST (24 h): 52.6 IU/L
- BUN (24 h): 19 mg/dL
- CRE (24 h): 0.5 mg/dL
- Ca (24 h): 11.3 mg/dL
- Cl (24 h): 104.2 meq/L
- DBIL (24 h): 0.024 mg/dL
- GLC (24 h): 205 mg/dL
- IP (24 h): 8.7 mg/dL
- K (24 h): 4.7 meq/L
- LDH (24 h): 104.8 IU/L
- Na (24 h): 139 meq/L
- PL (24 h): 143.6 mg/dL
- RALB (24 h): 3.7 g/dL
- TBIL (24 h): 0.3 mg/dL
- TC (24 h): 81.6 mg/dL
- TG (24 h): 67.4 mg/dL
- TP (24 h): 5.8 g/dL
- gamma-GTP (24 h): 1.4 IU/L
